Experimental data published in the CheMixHub drug solubility set.

Experiment: xn = mol fraction of the nth substance listed, in the solute-free solvent

O=C1CCc2ccc(OCCCCN3CCN(c4cccc(Cl)c4Cl)CC3)cc2N1 + CCC(C)=O + CCCO
solubility (g/100 g solution)
Details	278.15 K	283.15 K	288.15 K	293.15 K	298.15 K	303.15 K	308.15 K	313.15 K	318.15 K
x2 = 0.1	0.703	0.851	1.04	1.22	1.46	1.7	2.04	2.61	3.38
x2 = 0.2	1.03	1.2	1.44	1.69	1.98	2.38	2.87	3.56	4.45
x2 = 0.3	1.32	1.52	1.88	2.29	2.68	3.15	3.67	4.46	5.5
x2 = 0.4	1.6	1.86	2.24	2.74	3.21	3.77	4.34	5.18	6.36
x2 = 0.5	1.86	2.05	2.48	3.03	3.59	4.13	4.81	5.82	7.2
x2 = 0.6	2.04	2.25	2.67	3.18	3.75	4.3	5.16	6.36	7.89
x2 = 0.7	1.98	2.21	2.62	3.12	3.68	4.22	5.04	6.23	7.71
x2 = 0.8	1.84	2.09	2.47	2.96	3.48	4.03	4.72	5.83	7.15
x2 = 0.9	1.68	1.94	2.27	2.69	3.12	3.61	4.21	5.13	6.36

O=C1CCc2ccc(OCCCCN3CCN(c4cccc(Cl)c4Cl)CC3)cc2N1 + CCC(C)=O + CCOC(C)=O
solubility (g/100 g solution)
Details	278.15 K	283.15 K	288.15 K	293.15 K	298.15 K	303.15 K	308.15 K	313.15 K	318.15 K
x2 = 0.1	0.601	0.745	0.882	1.04	1.24	1.57	1.88	2.26	2.76
x2 = 0.2	0.641	0.794	0.953	1.12	1.37	1.74	2.08	2.45	2.98
x2 = 0.3	0.681	0.845	1.04	1.22	1.48	1.91	2.28	2.68	3.24
x2 = 0.4	0.73	0.907	1.14	1.32	1.61	2.06	2.48	2.92	3.53
x2 = 0.5	0.778	0.975	1.23	1.44	1.75	2.22	2.66	3.16	3.8
x2 = 0.6	0.825	1.05	1.32	1.57	1.89	2.39	2.86	3.4	4.12
x2 = 0.7	0.879	1.13	1.43	1.69	2.03	2.55	3.04	3.65	4.42
x2 = 0.8	0.948	1.22	1.53	1.83	2.18	2.72	3.25	3.87	4.75
x2 = 0.9	1.04	1.34	1.63	1.98	2.36	2.91	3.48	4.12	5.04

Nc1cncc(Cl)n1 + CCCO + O
solubility (g/100 g solution)
Details	278.15 K	283.15 K	288.15 K	293.15 K	298.15 K	303.15 K	308.15 K	313.15 K	318.15 K	323.15 K
x2 = 0.03225	–	–	–	–	–	–	–	–	–	0.0893
x2 = 0.06974	–	–	–	–	–	–	–	–	–	0.208
x2 = 0.1139	0.364	0.43	0.499	0.588	0.686	0.81	0.936	1.08	1.23	1.41
x2 = 0.1666	0.527	0.621	0.722	0.852	0.998	1.18	1.36	1.57	1.79	2.05
x2 = 0.2307	0.638	0.75	0.883	1.04	1.25	1.48	1.73	2.01	2.31	2.65
x2 = 0.3103	0.747	0.891	1.06	1.26	1.51	1.79	2.11	2.46	2.83	3.24
x2 = 0.4117	0.837	1.02	1.22	1.46	1.76	2.11	2.48	2.89	3.33	3.85
x2 = 0.5454	0.928	1.11	1.31	1.61	1.94	2.37	2.82	3.33	3.85	4.44
x2 = 0.7297	0.918	1.12	1.37	1.7	2.09	2.52	3.02	3.56	4.15	4.87

O=C(O)c1cc([N+](=O)[O-])ccc1O + CCCO + O
solubility (g/100 g solution)
Details	278.15 K	283.15 K	288.15 K	293.15 K	298.15 K	303.15 K	308.15 K	313.15 K	318.15 K	323.15 K
x2 = 0.03225	0.0803	0.104	0.134	0.171	0.216	0.26	0.316	0.38	0.458	0.542
x2 = 0.06974	0.189	0.227	0.294	0.366	0.45	0.559	0.678	0.817	1.01	1.24
x2 = 0.1139	0.45	0.55	0.689	0.87	1.08	1.3	1.55	1.79	2.07	2.41
x2 = 0.1666	0.839	1.02	1.3	1.63	2.02	2.42	2.82	3.28	3.77	4.3
x2 = 0.2307	1.52	1.91	2.38	2.94	3.59	4.22	4.85	5.61	6.41	7.29
x2 = 0.3103	2.34	2.82	3.45	4.11	4.94	5.73	6.68	7.75	8.82	10.2
x2 = 0.4117	3.55	4.17	4.92	5.66	6.64	7.67	8.85	9.98	11.2	12.6
x2 = 0.5454	4.75	5.34	6.09	7.02	8.12	9.33	10.6	12	13.4	15.1
x2 = 0.7297	5.59	6.57	7.78	8.73	9.96	11.3	12.4	13.8	15.2	16.8

Oc1ccc(Cl)c2cccnc12 + CCCOC(C)=O + CCO
solubility (g/100 g solution)
Details	278.15 K	283.15 K	288.15 K	293.15 K	298.15 K	303.15 K	308.15 K	313.15 K	318.15 K	323.15 K
x2 = 0.1013	1.48	1.74	2.02	2.4	2.82	3.28	3.89	4.6	5.52	6.43
x2 = 0.2214	1.97	2.29	2.69	3.2	3.76	4.43	5.18	6.1	7.46	8.81
x2 = 0.4035	2.41	2.81	3.3	3.87	4.53	5.41	6.43	7.55	8.8	10.5
x2 = 0.6434	2.74	3.26	3.83	4.52	5.3	6.25	7.27	8.56	9.99	11.7
